Source: patent US6277854A, “Tricyclic antitumor farnesyl protein transferase inhibitors” (Schering Corporation, priority 1999, dated 2001)

How the values were obtained:
[1] = target: farnesyl protein transferase; test: In vitro enzyme assay: inhibition of farnesyl protein transferase (FPT), [3H]farnesyl transfer to Ras-CVLS; assay type: biochemical, rat (brain); human (expressed in E. coli)
Source text: 1. In vitro enzyme assays: Inhibition of famesyl protein transferase and geranylgeranyl protein transferase.
Farnesyl protein transferase (FPT) was partially purified from rat brain by ammonium sulfate fractionation followed by Q-Sepharose (Pharmacia, Inc.) anion exchange chromatography essentially as described by Yokoyama et al (Yokoyama, K., et al., (1991), A protein geranylgeranyltransferase from bovine brain: Implications for protein prenylation specificity, Proc. Natl. Acad. Sci USA 88: 5302-5306, the disclosure of which is incorporated herein by reference thereto). Human famesyl protein transferase was also expressed in E. coli, using cDNA clones encoding both the a and b subunits. The methods used were similar to those published (Omer, C. et al., (1993), Characterization of recombinant human famesyl protein transferase: Cloning, expression, farnesyl diphosphate binding, and functional homology with yeast prenyl-protein transferases, Biochemistry 32:5167-5176). Human famesyl protein transferase was partially-purified from the soluble protein fraction of E. coli as described above. […] Two forms of val^12 -Ha-Ras protein were prepared as substrates for these enzymes, differing in their carboxy terminal sequence. One form terminated in cysteine-valine-leucine-serine (Ras-CVLS) the other in cystein-valine-leucine-leucine (Ras-CVLL). Ras-CVLS is a substrate for the famesyl protein transferase while Ras-CVLL is a substrate for geranylgeranyl protein transferase I. The cDNAs encoding these proteins were constructed so that the proteins contain an amino-terminal extension of 6 histidine residues. Both proteins were expressed in Escherichia coli and purified using metal chelate affinity chromatography. The radiolabelled isoprenyl pyrophosphate substrates, [^3 H]farnesyl pyrophosphate and [^3 H]geranylgeranyl pyrophosphate, were purchased from DuPon/New England Nuclear.
Several methods for measuring farnesyl protein transferase activity have been described (Reiss et al 1990, Cell 62: 81; Schaber et al 1990, J. Biol. Chem. 265: 14701; Manne et al 1990, PNAS 87: 7541; and Barbacid & Manne 1993, U.S. Pat. No. 5,185,248). […] The reaction was allowed to proceed for 30 minutes at room temperature and then stopped with 0.5 ml of 4% sodium dodecyl sulfate (SDS) followed by 0.5 ml of cold 30% TCA. Samples were allowed to sit on ice for 45 minutes and precipitated Ras protein was then collected on GF/C filter paper mats using a Brandel cell harvester. Filter mats were washed once with 6% TCA, 2% SDS and radioactivity was measured in a Wallac 1204 Betaplate BS liquid scintillation counter. Percent inhibition was calculated relative to the DMSO vehicle control.

[2] = tested on: Ras processing (val12-Ha-Ras-CVLS) in COS monkey kidney cells; test: Cell-based assay: inhibition of Ras processing in COS cells (transient expression of val12-Ha-Ras-CVLS); details: Primates
Protocol: Following electroporation, cells were plated into 6-well tissue culture dishes containing 1.5 ml of Dulbecco's-modified Eagle's media (GIBCO, Inc.) supplemented with 10% fetal calf serum and the appropriate farnesyl protein transferase inhibitors. After 24 hours, media was removed and fresh media containing the appropriate drugs was re-added.
48 hours after electroporation cells were examined under the microscope to monitor disordered cell growth induced by transforming Ras. Cells expressing transforming Ras become more rounded and refractile and overgrow the monolayer, reminiscent of the transformed phenotype. Cells were then photographed, washed twice with 1 ml of cold phosphate-buffered saline (PBS) and removed from the dish by scraping with a rubber policeman into 1 ml of a buffer containing 25 mM Tris, pH 8.0; 1 mM ethylenediamine tetraacetic acid; 1 mM phenylmethylsulfonyl fluoride; […]; and 0.1 mM pepstatin. Cells were lysed by homogenization and cell debris was removed by centrifugation at 2000×g for 10 min.
Cellular protein was precipitated by addition of ice-cold trichloroacetic acid and redissolved in […] of SDS-electrophoresis sample buffer. […] Proteins resolved on the gels were electroblotted onto nitrocellulose membranes for immunodetection.
After washing, membranes were incubated for one hour at room temperature with a 1:5000 dilution of secondary antibody, rabbit anti-rat IgG conjugated to horseradish peroxidase, in PBS containing 1% fetal calf serum. The presence of processed and unprocessed Ras-CVLS or Ras-CVLL was detected using a colorimetric peroxidase reagent (4-chloro-1-naphthol) as described by the manufacturer (Bio-Rad).

With `CN(C)CCCC(=O)N1CCC(C2c3ncc(Br)cc3CCc3cc(Cl)cc(Cl)c32)CC1` (single isomer, unassigned) [Example 6] the IC50 [1] was 6.5 nM and the IC50 [2] was 35 nM.
Compound `COC(=O)CCCC(=O)N1CCC([C@H]2c3ncc(Br)cc3CCc3cc(Cl)cc(Br)c32)CC1` [Example 51, (+)-METHYL 4-(3,10-DIBROMO-8-CHLORO-6,11-DIHYDRO-5H-BENZO[5,6]CYCLO-HEPTA[1,2-b]PYRIDIN-11 (R)-YL)-DELTA-OXO-1-PIPERIDININE PENTANOATE] has an IC50 [1] of 19 nM.
With `O=C(O)CCCC(=O)N1CCC([C@H]2c3ncc(Br)cc3CCc3cc(Cl)cc(Br)c32)CC1` [Example 52, (+)-SODIUM 4-(3,10-DIBROMO-8-CHLORO-6,11-DIHYDRO-5H-BENZO[5,6]CYCLO-HEPTA[1,2-b]PYRIDIN-11(R)-YL)-DELTA-OXO-1-PIPERIDININE PENTANOATE] the IC50 [1] was 44 nM.
`NC(=O)CCCC(=O)N1CCC([C@H]2c3ncc(Br)cc3CCc3cc(Cl)cc(Br)c32)CC1` [Example 53, (+)-4-(3,10-DIBROMO-8-CHLORO-6,11-DIHYDRO-5H-BENZO[5,6]CYCLO-HEPTA[1,2-b]PYRIDIN-11(R)-YL)-DELTA-OXO-1-PIPERIDININE PENTANAMIDE] was tested, and the IC50 [1] was 10 nM.
With `COC(=O)CCCCC(=O)N1CCC([C@H]2c3ncc(Br)cc3CCc3cc(Cl)cc(Br)c32)CC1` [Example 54, (+)-METHYL 4-(3,10-DIBROMO-8-CHLORO-6,11-DIHYDRO-5H-BENZO[5,6]CYCLO-HEPTA[1,2-b]PYRIDIN-11(R)-YL)-EPSILON-OXO-1-PIPERIDININE HEXANOATE] the IC50 [1] was 15 nM.
Work on `O=C(O)CCCCC(=O)N1CCC([C@H]2c3ncc(Br)cc3CCc3cc(Cl)cc(Br)c32)CC1` [Example 55, (+)-SODIUM 4-(3,10-DIBROMO-8-CHLORO-6,11-DIHYDRO-5H-BENZO[5,6]CYCLO-HEPTA[1,2-b]PYRIDIN-11(R)-YL)-EPSILON-OXO-1-PIPERIDININE HEXANOATE] yielded an IC50 [1] of 17 nM.
For `NC(=O)CCCCC(=O)N1CCC([C@H]2c3ncc(Br)cc3CCc3cc(Cl)cc(Br)c32)CC1` [Example 56, (+)-4-(3,10-DIBROMO-8-CHLORO-6,11-DIHYDRO-5H-BENZO[5,6]CYCLO-HEPTA[1,2-b]PYRIDIN-11(R)-YL)-EPSILON-OXO-1-PIPERIDININE HEXANAMIDE], the IC50 [1] was 7 nM.
In the case of `COC(=O)CCCCCC(=O)N1CCC([C@H]2c3ncc(Br)cc3CCc3cc(Cl)cc(Br)c32)CC1` [Example 57, (+)-METHYL 4-(3,10-DIBROMO-8-CHLORO-6,11-DIHYDRO-5H-BENZO[5,6]CYCLO-HEPTA[1,2-b]PYRIDIN-11(R)-YL)-OMEGA-OXO-1-PIPERIDININE HEPTANOATE], the IC50 [1] is reported as 11 nM.
`O=C(O)CCCCCC(=O)N1CCC([C@H]2c3ncc(Br)cc3CCc3cc(Cl)cc(Br)c32)CC1` [Example 58, (+)-SODIUM 4-(3,10-DIBROMO-8-CHLORO-6,11-DIHYDRO-5H-BENZO[5,6]CYCLO-HEPTA[1,2-b]PYRIDIN-11 (R)-YL)-OMEGA-OXO-1-PIPERIDININE HEPTANOATE] gave an IC50 [1] of 9.1 nM and an IC50 [2] of 300 nM.
In the case of `NC(=O)CCCCCC(=O)N1CCC([C@H]2c3ncc(Br)cc3CCc3cc(Cl)cc(Br)c32)CC1` [Example 59, (+)-4-(3,10-DIBROMO-8-CHLORO-6,11-DIHYDRO-5H-BENZO[5,6]CYCLO-HEPTA[1,2-b]PYRIDIN-11(R)-YL)-OMEGA-OXO-1-PIPERIDININE HEPTANAMIDE], the IC50 [1] is reported as 3.3 nM and the IC50 [2] is reported as 15 nM.
